Structures can show the parent of a compound that is named as a salt. Where two headings read alike, the source gives them in different places.
Legend:
[1] = biological target: T1, MMP-1FL (full length interstitial collagenase) (Homo sapiens, UniProt P03956); experiment: Thiopeptolide substrate hydrolysis assay, MMP-1FL; format: biochemical; conditions: HEPES pH 7.0, 22° C., read-out: IC50 (μM) Versus Certain MMPs: MMP-01 FL
T1 sequence (P03956 100-469): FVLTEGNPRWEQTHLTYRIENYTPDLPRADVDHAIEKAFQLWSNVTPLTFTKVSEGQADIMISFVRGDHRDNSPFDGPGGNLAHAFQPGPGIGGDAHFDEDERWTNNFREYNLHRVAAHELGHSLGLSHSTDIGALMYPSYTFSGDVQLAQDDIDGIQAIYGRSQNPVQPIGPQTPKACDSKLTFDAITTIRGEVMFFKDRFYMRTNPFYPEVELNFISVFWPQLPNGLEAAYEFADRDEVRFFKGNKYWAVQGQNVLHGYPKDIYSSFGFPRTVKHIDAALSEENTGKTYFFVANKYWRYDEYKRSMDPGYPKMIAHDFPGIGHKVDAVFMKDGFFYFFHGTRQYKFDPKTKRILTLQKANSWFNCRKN
Text: (§1) The invention compounds of Formula I have been evaluated in standard assays for their ability to inhibit the catalytic activity of various MMP enzymes.
(§2) Thiopeptolide substrates show virtually no decomposition or hydrolysis at or below neutral pH in the absence of a matrix metalloproteinase enzyme.
(§3) Several representative compounds have been evaluated for their ability to inhibit various matrix metalloproteinase enzymes.

[2] = biological target: T2, MMP-2FL (full length Gelatinase A) (Homo sapiens, UniProt P08253); experiment: Thiopeptolide substrate hydrolysis assay, MMP-2FL; format: biochemical; conditions: HEPES pH 7.0, 22° C., read-out: IC50 (μM) Versus Certain MMPs: MMP-02 FL
T2 sequence (P08253 110-660): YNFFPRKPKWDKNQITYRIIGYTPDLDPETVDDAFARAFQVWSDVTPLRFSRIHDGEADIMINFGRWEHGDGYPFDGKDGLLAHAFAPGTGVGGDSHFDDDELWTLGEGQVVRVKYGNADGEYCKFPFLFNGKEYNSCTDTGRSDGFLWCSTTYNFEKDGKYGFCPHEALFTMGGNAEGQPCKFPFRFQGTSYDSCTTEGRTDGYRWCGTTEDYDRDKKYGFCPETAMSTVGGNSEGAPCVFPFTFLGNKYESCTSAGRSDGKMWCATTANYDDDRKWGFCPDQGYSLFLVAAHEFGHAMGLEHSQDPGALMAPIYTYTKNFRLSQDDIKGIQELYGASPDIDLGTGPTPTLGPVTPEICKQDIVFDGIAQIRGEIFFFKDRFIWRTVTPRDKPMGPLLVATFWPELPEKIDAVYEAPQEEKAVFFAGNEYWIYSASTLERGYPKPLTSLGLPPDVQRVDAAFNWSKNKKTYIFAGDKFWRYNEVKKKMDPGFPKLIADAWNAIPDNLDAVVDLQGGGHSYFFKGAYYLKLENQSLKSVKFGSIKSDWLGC
Text: as §1, §2, §3

[3] = biological target: T3, MMP-7FL (full length matrilysin) (Homo sapiens, UniProt P09237); experiment: Thiopeptolide substrate hydrolysis assay, MMP-7FL; format: biochemical; conditions: HEPES pH 7.0, 22° C., read-out: IC50 (μM) Versus Certain MMPs: MMP-07 FL
T3 sequence (P09237 95-267): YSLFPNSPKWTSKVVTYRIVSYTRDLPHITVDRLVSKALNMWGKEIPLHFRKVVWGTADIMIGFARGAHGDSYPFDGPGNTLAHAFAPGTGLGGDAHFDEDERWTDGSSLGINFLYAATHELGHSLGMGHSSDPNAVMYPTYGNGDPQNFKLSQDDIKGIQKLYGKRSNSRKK
Text: as §1, §2, §3

[4] = biological target: MMP-3CD (catalytic domain of stromelysin-1) (Homo sapiens, UniProt P08254); experiment: Thiopeptolide substrate hydrolysis assay, MMP-3CD; format: biochemical; conditions: MES buffer pH 6.0, read-out: IC50 (μM) Versus Certain MMPs: MMP-03 CD
Procedure: as §1, §2, §3
It should be appreciated that the assay buffer used with MMP-3CD was 50 mM N-morpholinoethane sulfonate (−MES=) at pH 6.0 rather than the HEPES buffer at pH 7.0 described above.

[5] = biological target: MMP-14CD (catalytic domain of MMP-14) (Homo sapiens, UniProt P50281); experiment: Thiopeptolide substrate hydrolysis assay, MMP-14CD; format: biochemical; conditions: HEPES pH 7.0, 22° C., read-out: IC50 (μM) Versus Certain MMPs: MMP-14 CD
Text: as §1, §2, §3

[6] = biological target: MMP-9FL (full length Gelatinase B) (Homo sapiens, UniProt P14780); experiment: Thiopeptolide substrate hydrolysis assay, MMP-9FL; format: biochemical; conditions: HEPES pH 7.0, 22° C., read-out: IC50 (μM) Versus Certain MMPs: MMP-09 FL
Text: as §1, §2, §3

[7] = biological target: MMP-13CD (catalytic domain of collagenase 3) (Homo sapiens, UniProt P45452); experiment: Thiopeptolide substrate hydrolysis assay, MMP-13CD; format: biochemical; conditions: thiopeptolide substrate, HEPES pH 7.0, 22° C.
Text: as §2

[8] = read-out: IC50 (μM) Versus Certain MMPs: MMP-13 CD
[9] = IC50 (μM) Versus Certain MMPs: MMP-13 CD

MMP-9FL (full length Gelatinase B), sequence (P14780 94-707, species assumed): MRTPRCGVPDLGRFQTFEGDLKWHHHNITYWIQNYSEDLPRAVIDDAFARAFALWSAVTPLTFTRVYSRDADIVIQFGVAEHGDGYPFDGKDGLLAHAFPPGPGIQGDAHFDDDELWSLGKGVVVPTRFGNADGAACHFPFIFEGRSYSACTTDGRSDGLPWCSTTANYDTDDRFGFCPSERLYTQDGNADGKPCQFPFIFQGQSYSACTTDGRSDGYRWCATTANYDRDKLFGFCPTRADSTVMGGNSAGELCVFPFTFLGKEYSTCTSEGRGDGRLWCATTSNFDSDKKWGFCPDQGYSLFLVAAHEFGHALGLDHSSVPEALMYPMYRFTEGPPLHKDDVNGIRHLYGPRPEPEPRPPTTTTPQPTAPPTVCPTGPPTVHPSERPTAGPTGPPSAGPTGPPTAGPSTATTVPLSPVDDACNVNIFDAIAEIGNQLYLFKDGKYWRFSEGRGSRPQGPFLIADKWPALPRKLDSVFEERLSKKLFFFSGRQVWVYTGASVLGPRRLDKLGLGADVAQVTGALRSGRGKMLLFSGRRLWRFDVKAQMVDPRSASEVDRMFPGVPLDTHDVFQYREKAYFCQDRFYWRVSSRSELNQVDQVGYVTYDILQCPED
MMP-3CD (catalytic domain of stromelysin-1), sequence (P08254 100-272 limits assumed): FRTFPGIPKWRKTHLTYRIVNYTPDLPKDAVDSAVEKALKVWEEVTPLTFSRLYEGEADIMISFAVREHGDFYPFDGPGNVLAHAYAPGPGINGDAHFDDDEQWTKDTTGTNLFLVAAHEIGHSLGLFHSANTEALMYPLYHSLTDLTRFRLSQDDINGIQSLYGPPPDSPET

| IC50 [1] [µM] | IC50 [2] [µM] | IC50 [3] [µM] | IC50 [4] [µM] | IC50 [5] [µM] | IC50 [6] [µM] | melting point [°C] | IC50 [7, 8] [µM] | IC50 [7, 9] [µM] | SMILES |
| --- | --- | --- | --- | --- | --- | --- | --- | --- | --- |
| > 100 | – | – | – | – | – | – | – | – | Cc1c(=O)n(Cc2ccc(S(C)(=O)=O)cc2)c(=O)n2cc(C(=O)NCc3ccncc3)sc12 [Example 81, 6-(4-Methanesulfonyl-benzyl)-8-methyl-5,7-dioxo-6,7-dihydro-5H-thiazolo[3,2-c]pyrimidine-2-carboxylic acid(pyridin-4-ylmethyl)-amide hydrochloride] |
| > 30 | > 30 | > 30 | > 30 | > 30 | > 30 | – | – | – | COC(=O)c1nc(Cn2c(=O)c(C)c3sc(C(=O)NCc4ccc(F)cc4)cn3c2=O)ncc1OC [Example 78, 2-[2-(4-Fluoro-benzylcarbamoyl)-8-methyl-5,7-dioxo-7H-thiazolo[3,2-c]pyrimidin-6-ylmethyl]-5-methoxy-pyrimidine-4-carboxylic acid methyl ester] |
| – | 65 | > 100 | – | > 100 | > 100 | 163 to 165 | 0.0106 | – | COC(=O)c1ccc(Cn2c(=O)c(C)c3sc(C(=O)NCc4ccc(OC)cc4)cn3c2=O)cc1 [Example 103, 4-[2-(4-Methoxy-benzylcarbamoyl)-8-methyl-5,7-dioxo-7H-thiazolo[3,2-c]pyrimidin-6-ylmethyl]-benzoic acid methyl ester] |
| – | > 30 | 27 | – | > 30 | > 30 | 209 to 211 | – | – | COC(=O)c1ccc(Cn2c(=O)c(C)c3sc(C(=O)NCc4cccc(F)c4)cn3c2=O)cc1 [Example 105, 4-[2-(3-Fluoro-benzylcarbamoyl)-8-methyl-5,7-dioxo-7H-thiazolo[3,2-c]pyrimidin-6-ylmethyl]-benzoic acid methyl ester] |
| – | > 100 | > 100 | – | > 100 | > 100 | 179 to 180 | – | – | COC(=O)c1ccc(Cn2c(=O)c(C)c3sc(C(=O)NCc4ccc(F)cc4)cn3c2=O)cc1C [Example 68, 4-[2-(4-Fluoro-benzylcarbamoyl)-8-methyl-5,7-dioxo-7H-thiazolo[3,2-c]pyrimidin-6-ylmethyl]-2-methyl-benzoic acid methyl ester] |
| > 100 | – | – | – | – | – | – | – | – | Cc1c(=O)n(Cc2ccc(C(=O)O)cc2)c(=O)n2cc(C(=O)NCc3ccncc3)sc12 [Example 62, 4-{8-Methyl-5,7-dioxo-2-[(pyridin-4-ylmethyl)-carbamoyl]-7H-thiazolo[3,2-c]pyrimidin-6-ylmethyl}-benzoic acid trifluoro-acetate] |

Further lines, the compound ahead of its results:

| SMILES | IC50 [1] [µM] | IC50 [2] [µM] | IC50 [3] [µM] | IC50 [4] [µM] | IC50 [5] [µM] | IC50 [6] [µM] | melting point [°C] | IC50 [7, 8] [µM] | IC50 [7, 9] [µM] |
| --- | --- | --- | --- | --- | --- | --- | --- | --- | --- |
| Cc1c(=O)n(Cc2ccccc2)c(=O)n2cc(C(=O)NCc3ccc4nsnc4c3)sc12 [Example 42, 6-Benzyl-8-methyl-5,7-dioxo-6,7-dihydro-5H-thiazolo[3,2-c]pyrimidine-2-carboxylic acid(2,1,3-benzothiadiazol-5-ylmethyl)-amide] | – | > 30 | > 30 | 10 | > 100 | > 30 | – | – | – |
| Cc1c(=O)n(Cc2ccccc2)c(=O)n2cc(C(=O)OCc3ccccc3)sc12 [Example 2, 6-Benzyl-8-methyl-5,7-dioxo-6,7-dihydro-5H-thiazolo[3,2-c]pyrimidine-2-carboxylic acid benzyl ester] | > 100 | – | – | – | – | – | – | – | – |
| COC(=O)c1ccc(Cn2c(=O)c(C)c3sc(C(=O)NCc4ccc(F)cc4)cn3c2=O)cc1OC.Cl [Example 69, 4-[2-(4-Fluoro-benzylcarbamoyl)-8-methyl-5,7-dioxo-7H-thiazolo[3,2-c]pyrimidin-6-ylmethyl]-2-methoxy-benzoic acid methyl ester] | – | > 30 | > 30 | 10 | > 30 | > 30 | 191 to 193 | – | – |
| O=C(NCc1ccccc1)c1cn2c(=O)n(Cc3ccc(Cl)c(Cl)c3)c(=O)cc2s1 [Example 12, 6-(3,4-Dichlorobenzyl)-5,7-dioxo-6,7-dihydro-5H-thiazolo[3,2-c]pyrimidine-2-carboxylic acid benzylamide] | – | > 100 | 20 | – | > 30 | > 30 | 216 to 217 | 0.293 | – |
| COc1cc(CNC(=O)c2cn3c(=O)n(Cc4ccccc4)c(=O)c(C)c3s2)ccn1 [Example 37a, hydrochloride] | – | – | 26 | 20.5 | – | – | – | – | 0.0208 |
| O=C(NCc1ccc(Cl)c(Cl)c1)c1cn2c(=O)n(Cc3ccc(Cl)cc3)c(=O)cc2s1 [Example 14, 6-(4-Chlorobenzyl)-5,7-dioxo-6,7-dihydro-5H-thiazolo[3,2-c]pyrimidine-2-carboxylic acid 3,4-dichlorobenzylamide] | – | > 30 | 25 | – | > 100 | > 30 | 218 to 219 | – | – |
| Cc1c(=O)n(Cc2ccccc2)c(=O)n2cc(C(=O)NCc3ccccc3)sc12 [Example 16, 6-Benzyl-8-methyl-5,7-dioxo-6,7-dihydro-5H-thiazolo[3,2-c]pyrimidine-2-carboxylic acid benzylamide] | – | > 100 | > 30 | – | > 30 | > 100 | 176 to 178 | – | – |
| O=C(OCc1ccccc1)c1cn2c(=O)n(Cc3ccccc3)c(=O)cc2s1 [Example 1, 6-Benzyl-5,7-dioxo-6,7-dihydro-5H-thiazolo[3,2-c]pyrimidine-2-carboxylic acid benzyl ester] | > 100 | – | 96 | 23 | > 30 | – | – | – | – |
| O=C(OCc1ccncc1)C1Cn2c(cc(=O)n(Cc3ccccc3)c2=O)S1 (centres unmarked) [Example 21, 6-Benzyl-5,7-dioxo-2,3,6,7-tetrahydro-5H-thiazolo[3,2-c]pyrimidine-2-carboxylic acid pyridin-4-ylmethyl ester hydrochloride] | > 100 | > 100 | > 100 | > 100 | > 100 | > 100 | – | – | – |
| O=c1cc2sccn2c(=O)n1Cc1ccc(Cl)cc1 [6-(4-Chlorobenzyl)-thiazolo[3,2-c]pyrimidine-5,7-dione] | – | – | – | – | – | – | 152 to 153.5 | > 100 | – |
| Cc1c(=O)n(Cc2ccccc2)c(=O)n2cc(C(=O)NCc3ccc4[nH]ccc4c3)sc12 [Example 34, 6-Benzyl-8-methyl-5,7-dioxo-6,7-dihydro-5H-thiazolo[3,2-c]pyrimidine-2-carboxylic acid(1H-indol-5-ylmethyl)-amide] | – | – | – | – | – | – | 189 to 191 | – | 23 |
| Cc1c(=O)[nH]c(=O)n2ccsc12 [Example 53, 8-Methyl-thiazolo[3,2-c]pyrimidine-5,7-dione] | – | – | – | – | – | – | > 230 | > 100 | – |

Reference: US20060040957A1, “BICYCLIC PYRIMIDINE MATRIX METALLOPROTEINASE INHIBITORS” (priority 2001, published 2006)
